Columns and labels:
[1] = system: sebaceous gland excretion; assay: sebaceous gland excretion-inhibiting activity, glass block method (refatting of forehead skin); type: in vivo, human; details: ethanolic 5% solution, 0.25 ml on half of forehead; for Average extinction values, Difference: difference between treated and controls (ethanol); for Average extinction values, Treated: skin fat removed after 90 minutes, refatting measured after three additional hours, treated group
Protocol: The sebaceous gland excretion-inhibiting activity was ascertained by the glass block method described by Schaefer and Kuhn-Bussius in Arch. Klin. exper. Derm. 238, 429-435 (1970). Small glass blocks, the facets of which have been roughened or frosted, are pressed against the skin surface where the amount of skin fat is measured. The skin fat or sebum transferred from the skin to the glass facet makes the blocks more translucent, and the increase in translucence is directly proportional to the amount of sebum present in the skin area. The translucence is measured in a photometer. Prior to measurement of the degree of refating of the skin, the skin fat was removed with a plastic foil.
0.25 ml of an ethanolic 5% solution of the compound to be tested was applied to half of the forehead of 5 to 10 human test subjects, while 0.25 ml of ethanol was applied to half of the forehead of a group of 5 to 10 control subjects. After 90 minutes the skin fat was removed with the plastic foil, and after three additional hours the degree of refatting was determining with the aid of the small glass blocks referred to above.

[2] = system: dinitrochlorobenzene-eczema; assay: antiphlogistic activity, dinitrochlorobenzene-eczema method; type: in vivo, guinea pigs; details: Cavia porcellus, topical; ethanolic 5% solution on shaved flanks, 30 minutes before 1% dinitrochlorobenzene; visual evaluation after 22 hours; read-out: Inhibition of dinitrochlorobenzene-eczema over control
Protocol: The antiphlogistic activity was ascertained by the dinitrochlorobenzene-eczema method [see A. I. Scott, Brit. J. Dermatol. 77, 586 (1965)].
The compound to be tested was applied in the form of an ethanolic 5% solution to the shaved flanks of a group of 10 guinea pigs which has been sensitized with dinitrochlorobenzene. An analogous control group was treated with only ethanol. The treatment was effected 30 minutes prior to release of the allergic reaction with a 1% solution of dinitrochlorobenzene in acetone. The results were visually evaluated 22 hours thereafter.

[3] = acute toxicity, LD50 mouse i.p.; details: in vivo, ip

SMILES | Average extinction values, Difference [1] | Average extinction values, Treated [1] | inhibition in vivo at 5 % [2] [%] | LD50 [3] [mg/kg]
CCCCCCCCCCCCCCCCOC(=O)CNC(C)=O [A, n-acetyl-glycine hexadecyl ester] | 9.5 | 75.5 | 46 | –
CCCCCCCCCCCCCCCCOC(=O)CCNC(C)=O [J, n-acetyl-β-alanine hexadecyl ester] | – | – | 35 | –
O=C(O)CCCNC(=O)c1ccc(-c2ccccc2)cc1 [I, n-(4'-phenyl-benzoyl)-4-amino-butyric acid] | – | – | 36 | –
CCCCCCCCCCCCCCCCOC(=O)CN(C)C(C)=O [D, n-acetyl-sarcosine hexadecyl ester] | 9.0 | 86.5 | 20 | –
CCCCCCCCCCCCCCCCOC(=O)C(C)NC(C)=O (stereo not drawn) [B, n-acetyl-alanine hexadecyl ester] | 7.5 | 74.0 | 19 | –
CCCCCCCCCCCCCCCCOC(=O)CNC=O [F, n-formyl-glycine hexadecyl ester] | – | – | 50 | –
CCCCCCCCCCCCCCCCOC(=O)CNC(=O)CC [G, n-propionyl-glycine hexadecyl ester] | – | – | 34 | –
CCCCCCCCCCCCCCCCOC(=O)CNC(=O)c1ccccc1 [Compound C, n-benzoyl-glycine hexadecyl ester] | 16.5 | 78.5 | 28 | > 4000
CCCCCCCCCCCCCC(=O)NCC(=O)O [H, n-tetradecanoyl-glycine] | – | – | 38 | –

Reference: patent US4016287A, “Dermatological compositions containing an acylamino-carboxylic acid or an alkyl ester thereof” (Boehringer Ingelheim GmbH, priority 1975, dated 1977)
